Results reported in ChEMBL document CHEMBL3044900, “Synthesis of pregnenolonedanazolethylendiamine conjugate: relationship between descriptors log P, , R m, and V m and its antibacterial activity in S. aureus and V. cholerae” (2011).
Converted amounts (≈) assume the structure as drawn.

Experiments:
Staphylococcus aureus = experiment: Antibacterial activity against Staphylococcus aureus ATCC 25923 incubated for 24 hr followed by compound washout measured after 24 hr by dilution method; format: functional
Vibrio cholerae = experiment: Antibacterial activity against Vibrio cholerae ATCC 14035 incubated for 24 hr followed by compound washout measured after 24 hr by dilution method; format: functional

## C#C[C@@]1(OC(=O)CCC(=O)O[C@H]2CC[C@@]3(C)C(=CC[C@H]4[C@@H]5CC[C@H](C(C)=O)[C@@]5(C)CC[C@@H]43)C2)CC[C@H]2[C@@H]3CCC4=C(CNCCN)c5oncc5C[C@]4(C)[C@H]3CC[C@@]21C
Staphylococcus aureus; ATCC 25923, 24 h
  MIC: 1.23 µM (≈ 0.994 µg/mL)
Vibrio cholerae; ATCC 14035, 24 h
  MIC: 1.23 µM (≈ 0.994 µg/mL)

## CO/N=C(\C(=O)N[C@@H]1C(=O)N2C(C(=O)O)=C(COC(C)=O)CS[C@H]12)c1csc(N)n1 [CEFOTAXIME]
Staphylococcus aureus; ATCC 25923, 24 h
  MIC: 0.261 µM (≈ 0.119 µg/mL)
Vibrio cholerae; ATCC 14035, 24 h
  MIC: 0.523 µM (≈ 0.238 µg/mL)

## O=C(O)c1cn(C2CC2)c2cc(N3CCNCC3)c(F)cc2c1=O [CIPROFLOXACIN]
Staphylococcus aureus; ATCC 25923, 24 h
  MIC: 0.377 µM (≈ 0.125 µg/mL)
Vibrio cholerae; ATCC 14035, 24 h
  MIC: 3.01 µM (≈ 0.997 µg/mL)

## C#C[C@@]1(OC(=O)CCC(=O)O[C@H]2CC[C@@]3(C)C(=CC[C@H]4[C@@H]5CC[C@H](C(C)=O)[C@@]5(C)CC[C@@H]43)C2)CC[C@H]2[C@@H]3CCC4=Cc5oncc5C[C@]4(C)[C@H]3CC[C@@]21C [DANAZOL-PREGNENOLONE]
Staphylococcus aureus; ATCC 25923, 24 h
  MIC: 0.663 µM (≈ 0.488 µg/mL)
Vibrio cholerae; ATCC 14035, 24 h
  MIC: 1.32 µM (≈ 0.972 µg/mL)

## GENTAMICIN
Staphylococcus aureus
  MIC: 0.274 µM
Vibrio cholerae
  MIC: 0.0134 µM
